Measurements published in publication PMC7251097, “Aspartate/asparagine-β-hydroxylase: a high-throughput mass spectrometric assay for discovery of small molecule inhibitors” (Scientific Reports, 2020).
Counter-ions that a name gives are not always drawn. Like-named read-outs stand apart in the source and are kept apart here. Values belong to the molecule of their own block, whether it stands above or below them.

Biological target: T1, His6-AspH315–758 (human aspartate/asparagine-β-hydroxylase, AspH) (Homo sapiens, UniProt Q12797)
T1 construct: N-Terminally His6-tagged human AspH315–758 (His6-AspH315–758) was produced in E. coli BL21 (DE3) cells; made in house; host or cells: E. coli BL21 (DE3), pET-28a(+) vector
T1 sequence (Q12797 315-758): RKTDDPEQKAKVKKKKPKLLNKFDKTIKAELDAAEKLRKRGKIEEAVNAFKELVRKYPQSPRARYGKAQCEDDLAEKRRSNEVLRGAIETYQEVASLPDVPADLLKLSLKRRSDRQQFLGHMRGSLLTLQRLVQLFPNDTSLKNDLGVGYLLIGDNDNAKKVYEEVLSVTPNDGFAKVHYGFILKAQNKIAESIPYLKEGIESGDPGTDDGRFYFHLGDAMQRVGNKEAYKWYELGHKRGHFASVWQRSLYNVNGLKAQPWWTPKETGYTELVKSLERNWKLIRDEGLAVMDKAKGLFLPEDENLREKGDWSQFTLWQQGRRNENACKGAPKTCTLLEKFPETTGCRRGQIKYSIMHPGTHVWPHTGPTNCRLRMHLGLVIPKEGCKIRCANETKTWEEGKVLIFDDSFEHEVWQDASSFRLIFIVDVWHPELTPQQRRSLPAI
Assay: SPE-MS AspH inhibition assay (LOPAC screen at fixed 20 μM and IC50 dose-response), hydroxylation of cyclic peptide hFX-CP101–119
Assay type: biochemical
Details: for Plate 5 (% inhibition) / Plate 5 (% conversion): plate 5 (Pfitzer), test compounds at fixed 20 μM; for Plate 5 (% conversion): mean conversion DMSO 32.88; for IC50: 50 nM His6-AspH315–758, 1.0 μM hFX-CP101–119, 3 μM 2OG, 2 μM Fe(II), 50 mM HEPES pH 7.5, 20 °C, mean ± SD, n = 2 (2,4-PDCA n = 10), read-out: IC50

[1] = LOPAC compound at fixed 20 uM, plate 1, normalised to DMSO and 2,4-PDCA controls
[2] = LOPAC compound at fixed 20 uM, substrate conversion, plate 1
[3] = LOPAC Plate 4, compound at 20 uM, substrate conversion
[4] = LOPAC Plate 4, compound at 20 uM, read-out: % inhibition
[5] = LOPAC compound at 20uM, plate 3, conversion of substrate peptide
[6] = LOPAC compound at 20uM, plate 2, conversion of substrate peptide
[7] = LOPAC compound at 20uM, plate 2, normalised to DMSO and 2,4-PDCA controls, read-out: Plate 2 (% inhibition)
[8] = AspH activity, fixed compound concentration 20 μM, initial LOPAC screen, 0.5%v/v DMSO, read-out: Inhibition at 20 µM [%]
[9] = LOPAC compound at 20uM, plate 2, normalised to DMSO and 2,4-PDCA controls

% conversion [3]: 37.20%
inhibition at 20 µM [4]: -2.13%
Molecule: CNC(=C[N+](=O)[O-])NCCSCc1ccc(CN(C)C)o1 [Ranitidine hydrochloride]

Plate 3 (% conversion) [5]: 49.23%
Molecule: CCCC(C(=O)OCCN(CC)CC)(c1ccccc1)c1ccccc1.Cl [SKF-525A hydrochloride]

Plate 1 (% inhibition) [1]: -17.18%
Plate 1 (% conversion) [2]: 41.64%
Molecule: CN1CCC(=C2c3ccccc3C=Cc3ccccc32)CC1 [Cyproheptadine hydrochloride]

Plate 2 (% conversion) [6]: 3.05%
inhibition at 20 µM [7]: 98.3%
Molecule: O=c1cc(O)cc(/C=C/c2ccc(O)c(O)c2)o1 [Hispidin, reference compound]

Plate 5 (% inhibition): 23.44%
Plate 5 (% conversion): 28.34%
Molecule: N#CC(CCCN1CCN(/N=C/c2cccnc2)CC1)(c1ccccc1)c1ccccc1 [SC-26196]

Plate 3 (% conversion) [5]: 36.38%
Molecule: CC(CCc1ccccc1)NCC(O)c1ccc(O)c(C(N)=O)c1 (stereo not drawn) [Labetalol hydrochloride]

IC50: 3.49 ± 0.76 µM
inhibition at 20 µM [8]: 95.2%
Plate 1 (% inhibition) [1]: 95.21%
Plate 1 (% conversion) [2]: 3.90%
Molecule: NC(CO)C(=O)NNCc1ccc(O)c(O)c1O (stereo not drawn) [benserazide, reference compound]

Plate 5 (% inhibition): -70.28%
Plate 5 (% conversion): 60.23%
Molecule: COc1ccc2c(c1)CCC(c1ccccc1)=C2c1ccc(OCCN2CCCC2)cc1 [Nafoxidine]

Plate 2 (% conversion) [6]: 34.79%
Plate 2 (% inhibition) [9]: 3.48%
Molecule: CN1C[C@H](O)[C@@H](O)[C@H](O)[C@H]1CO [N-Methyl-1-deoxynojirimycin]

Plate 1 (% inhibition) [1]: -8.63%
Plate 1 (% conversion) [2]: 38.77%
Molecule: CO/N=C(\C(=O)N[C@@H]1C(=O)N2C(C(=O)O)=C(CSc3nc(=O)c(=O)[nH]n3C)CS[C@H]12)c1csc(N)n1 [Ceftriaxone sodium]

Plate 3 (% conversion) [5]: 40.87%
Molecule: CC1(C)CCC(NC(=O)[C@@H](N)CCC(=O)O)CC1 [CR 2249]

% conversion [3]: 41.52%
inhibition at 20 µM [4]: -14.8%
Molecule: COc1ccccc1OCC(O)CN1CCN(CC(=O)Nc2c(C)cccc2C)CC1 (stereo not drawn) [Ranolazine dihydrochloride]

Plate 1 (% inhibition) [1]: -13.21%
Plate 1 (% conversion) [2]: 40.31%
Molecule: CN(C)CCCC1(c2ccc(F)cc2)OCc2cc(C#N)ccc21 (stereo not drawn) [Citalopram hydrobromide]

Plate 3 (% conversion) [5]: 39.26%
Molecule: CN1C(C(=O)Nc2ccccn2)=C(O)c2ccccc2S1(=O)=O [Piroxicam]

Plate 5 (% inhibition): 67.34%
Plate 5 (% conversion): 13.39%
Molecule: CCN(CC)CCNC(=O)c1c(C)[nH]c(/C=C2\C(=O)Nc3ccc(F)cc32)c1C [Sunitinib]

Plate 2 (% conversion) [6]: 34.67%
inhibition at 20 µM [7]: 3.85%
Molecule: N=C(N)N/N=C/c1c(Cl)cccc1Cl [Guanabenz acetate]

Plate 1 (% inhibition) [1]: -2.24%
Plate 1 (% conversion) [2]: 36.62%
Molecule: [N-]=[N+]=Nc1ccc(C(=O)CSC[C@H](NC(=O)CC[C@H](N)C(=O)O)C(=O)NCC(=O)O)cc1 [S-(p-Azidophenacyl)glutathione]

Plate 2 (% conversion) [6]: 40.61%
inhibition at 20 µM [7]: -13.9%
Molecule: CC(C)C(=O)Nc1ccc([N+](=O)[O-])c(C(F)(F)F)c1 [Flutamide]

IC50: 12.9 ± 1.05 µM
Molecule: O=C(O)CCNc1cc(N2CCc3ccccc3CC2)nc(-c2ccccn2)n1 [GSK-J1, reference compound]

Plate 2 (% conversion) [6]: 25.50%
inhibition at 20 µM [7]: 31.2%
Molecule: O=c1[nH]c(=S)[nH]c(-c2ccccc2)c1Cc1c(O)ccc2ccccc12 [Cambinol]

Plate 5 (% inhibition): 35.16%
Plate 5 (% conversion): 24.35%
Molecule: CN(c1ccccc1CNc1nc(Nc2ccc3c(c2)CC(=O)N3)ncc1C(F)(F)F)S(C)(=O)=O [PF-431396]

% conversion [3]: 39.11%
Molecule: C[C@]12CCC(=O)C=C1CC[C@@H]1[C@@H]2CC[C@@]2(C)[C@H]1CC[C@]2(O)C(=O)CO [Cortexolone]

Plate 2 (% conversion) [6]: 10.03%
Plate 2 (% inhibition) [9]: 77.43%
Molecule: N[C@@H](Cc1ccc(O)c(O)c1)C(=O)O [L-3,4-Dihydroxyphenylalanine]

Further lines, the molecule ahead of its results:

Molecule: CC(=O)OC(C)C[N+](C)(C)C.[Cl-] (stereo not drawn) [Acetyl-beta-methylcholine chloride]
Plate 1 (% inhibition) [1]: -15.64%
Plate 1 (% conversion) [2]: 41.13%

Molecule: C[N+](C)(C)CCO.[Br-] [Choline bromide]
Plate 1 (% conversion): 37.78%
Plate 1 (% inhibition): -5.68%

Molecule: NC1CCN(O)C1=O (racemic) [(±)-HA-966]
Plate 1 (% conversion): 36.52%
Plate 1 (% inhibition): -1.94%

Molecule: CCN(CC)CCOc1ccc(Nc2ncc3cc(-c4c(Cl)cccc4Cl)c(=O)n(C)c3n2)cc1 [PD-166285]
Plate 5 (% inhibition): -31.63%
Plate 5 (% conversion): 47.08%

Molecule: CC(C)(C)NC(=O)[C@@H]1CN(Cc2cccnc2)CCN1C[C@@H](O)C[C@@H](Cc1ccccc1)C(=O)N[C@H]1c2ccccc2C[C@H]1O.O=S(=O)(O)O [Indinavir sulfate salt hydrate]
Plate 1 (% inhibition) [1]: -10.28%
Plate 1 (% conversion) [2]: 39.32%

Molecule: Br.CCCN(CCC)[C@@H]1CCc2cccc(O)c2C1 [R-(+)-8-Hydroxy-DPAT hydrobromide]
Plate 2 (% conversion): 39.31%
Plate 2 (% inhibition) [9]: -10.03%

Molecule: O=C(O)C1=CC(=C(c2ccc(O)c(C(=O)O)c2)c2ccc(O)c(C(=O)O)c2)C=CC1=O [Aurintricarboxylic acid, reference compound]
inhibition at 20 µM [8]: 104%
Plate 1 (% inhibition) [1]: 103.81%
Plate 1 (% conversion) [2]: 1.01%

Molecule: (+)-Catechin Hydrate
Plate 1 (% inhibition) [1]: 90.19%
Plate 1 (% conversion) [2]: 5.58%

Molecule: Brc1c(Br)c(Br)c2[nH]cnc2c1Br [TBBz]
Plate 1 (% conversion): 32.96%
Plate 1 (% inhibition): 8.67%

Molecule: Cc1cc(NC(=O)Nc2ccc3c(ccn3C)c2)sn1 [SB 204741]
Plate 1 (% conversion): 37.70%
Plate 1 (% inhibition): -5.45%

Molecule: [Cl-].[Li+] [Lithium Chloride]
Plate 2 (% conversion): 35.61%
Plate 2 (% inhibition) (20 µM): 1.04%

Molecule: Nc1ncn([C@@H]2O[C@H](CO)[C@@H](O)[C@H]2O)c(=O)n1 [5-azacytidine]
Plate 1 (% inhibition) [1]: 7.60%
Plate 1 (% conversion) [2]: 33.32%

Molecule: CC(C)=CCC/C(C)=C/COc1ccc2ccc(=O)oc2c1 [Auraptene]
% conversion [3]: 37.42%

Molecule: CC1=NN=C(c2ccc(N)cc2)c2cc3c(cc2C1)OCO3.Cl [GYKI 52466 hydrochloride]
Plate 2 (% conversion): 38.91%
Plate 2 (% inhibition) [9]: -8.84%

Molecule: O=C(O)CC[N+](=O)[O-] [3-Nitropropionic acid]
Plate 3 (% conversion): 32.27%

Molecule: Ic1ccccc1CNC1C2CCN(CC2)C1C(c1ccccc1)c1ccccc1.O=C(O)C(=O)O [L-703,606 oxalate salt hydrate]
Plate 3 (% conversion): 12.64%

Molecule: NC(CCCP(=O)(O)O)C(=O)O (racemic) [(±)-2-Amino-5-phosphonopentanoic acid]
Plate 1 (% conversion): 39.06%
Plate 1 (% inhibition) [1]: -9.50%

Molecule: N=C(N)NC(=O)c1nc(Cl)c(N)nc1N [Amiloride hydrochloride]
Plate 1 (% inhibition) [1]: 4.62%
Plate 1 (% conversion) [2]: 34.32%

Molecule: Nc1nc(Cl)nc2c1ncn2[C@@H]1O[C@H](CO)[C@@H](O)[C@H]1O [2-Chloroadenosine]
Plate 1 (% inhibition) [1]: -4.87%
Plate 1 (% conversion) [2]: 37.51%

Molecule: CC[C@H](CO)Nc1nc(NCc2ccccc2)c2ncn(C(C)C)c2n1 [Roscovitine]
Plate 1 (% conversion): 40.73%
Plate 1 (% inhibition): -14.45%

Molecule: CC(O)(CS(=O)(=O)c1ccc(F)cc1)C(=O)Nc1ccc(C#N)c(C(F)(F)F)c1 (stereo not drawn) [Bicalutamide (CDX)]
% conversion [3]: 24.70%

Molecule: Cc1nccc2c1[nH]c1ccccc12 [Harmane]
Plate 2 (% conversion): 35.31%
inhibition at 20 µM (read-out: Plate 2 (% inhibition)): 1.92%

Molecule: CC1CNCCN1S(=O)(=O)c1cccc2cnccc12.Cl.Cl (stereo not drawn)
Plate 3 (% conversion) [5]: 5.68%
